Data published in ChEMBL document CHEMBL3991601, “The target landscape of clinical kinase drugs” (Science, 2017).
pKd: −log10 of the molar value. Activity calls are given as the source filed them. Rule as the data show it, for most assays here: actives have a measured Kd and inactives only a lower limit.

What was measured:
[1] = target: Dual specificity protein kinase CLK1 (Homo sapiens, UniProt P49759)
[2] = target: T1, Phosphatidylinositol 5-phosphate 4-kinase type-2 gamma (Homo sapiens, UniProt Q8TBX8)
T1 sequence (Q8TBX8 whole entry): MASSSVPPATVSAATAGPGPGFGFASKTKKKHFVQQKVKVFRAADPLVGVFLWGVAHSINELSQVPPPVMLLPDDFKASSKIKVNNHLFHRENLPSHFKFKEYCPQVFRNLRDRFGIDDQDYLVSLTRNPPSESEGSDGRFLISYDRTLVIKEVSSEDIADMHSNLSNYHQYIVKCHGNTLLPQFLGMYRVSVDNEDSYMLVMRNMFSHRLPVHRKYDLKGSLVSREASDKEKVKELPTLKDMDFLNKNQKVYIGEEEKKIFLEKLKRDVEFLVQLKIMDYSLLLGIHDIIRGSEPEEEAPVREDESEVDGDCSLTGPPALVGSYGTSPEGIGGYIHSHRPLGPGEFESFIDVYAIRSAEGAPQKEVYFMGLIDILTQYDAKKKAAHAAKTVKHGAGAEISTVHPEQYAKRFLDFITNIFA

[3] = target: Cyclin-dependent kinase 6 (Homo sapiens, UniProt Q00534)
[4] = target: Serine/threonine-protein kinase MRCK alpha (Homo sapiens, UniProt Q5VT25)
Chain of Serine/threonine-protein kinase MRCK alpha (Q5VT25 whole entry, the tested form may be a part): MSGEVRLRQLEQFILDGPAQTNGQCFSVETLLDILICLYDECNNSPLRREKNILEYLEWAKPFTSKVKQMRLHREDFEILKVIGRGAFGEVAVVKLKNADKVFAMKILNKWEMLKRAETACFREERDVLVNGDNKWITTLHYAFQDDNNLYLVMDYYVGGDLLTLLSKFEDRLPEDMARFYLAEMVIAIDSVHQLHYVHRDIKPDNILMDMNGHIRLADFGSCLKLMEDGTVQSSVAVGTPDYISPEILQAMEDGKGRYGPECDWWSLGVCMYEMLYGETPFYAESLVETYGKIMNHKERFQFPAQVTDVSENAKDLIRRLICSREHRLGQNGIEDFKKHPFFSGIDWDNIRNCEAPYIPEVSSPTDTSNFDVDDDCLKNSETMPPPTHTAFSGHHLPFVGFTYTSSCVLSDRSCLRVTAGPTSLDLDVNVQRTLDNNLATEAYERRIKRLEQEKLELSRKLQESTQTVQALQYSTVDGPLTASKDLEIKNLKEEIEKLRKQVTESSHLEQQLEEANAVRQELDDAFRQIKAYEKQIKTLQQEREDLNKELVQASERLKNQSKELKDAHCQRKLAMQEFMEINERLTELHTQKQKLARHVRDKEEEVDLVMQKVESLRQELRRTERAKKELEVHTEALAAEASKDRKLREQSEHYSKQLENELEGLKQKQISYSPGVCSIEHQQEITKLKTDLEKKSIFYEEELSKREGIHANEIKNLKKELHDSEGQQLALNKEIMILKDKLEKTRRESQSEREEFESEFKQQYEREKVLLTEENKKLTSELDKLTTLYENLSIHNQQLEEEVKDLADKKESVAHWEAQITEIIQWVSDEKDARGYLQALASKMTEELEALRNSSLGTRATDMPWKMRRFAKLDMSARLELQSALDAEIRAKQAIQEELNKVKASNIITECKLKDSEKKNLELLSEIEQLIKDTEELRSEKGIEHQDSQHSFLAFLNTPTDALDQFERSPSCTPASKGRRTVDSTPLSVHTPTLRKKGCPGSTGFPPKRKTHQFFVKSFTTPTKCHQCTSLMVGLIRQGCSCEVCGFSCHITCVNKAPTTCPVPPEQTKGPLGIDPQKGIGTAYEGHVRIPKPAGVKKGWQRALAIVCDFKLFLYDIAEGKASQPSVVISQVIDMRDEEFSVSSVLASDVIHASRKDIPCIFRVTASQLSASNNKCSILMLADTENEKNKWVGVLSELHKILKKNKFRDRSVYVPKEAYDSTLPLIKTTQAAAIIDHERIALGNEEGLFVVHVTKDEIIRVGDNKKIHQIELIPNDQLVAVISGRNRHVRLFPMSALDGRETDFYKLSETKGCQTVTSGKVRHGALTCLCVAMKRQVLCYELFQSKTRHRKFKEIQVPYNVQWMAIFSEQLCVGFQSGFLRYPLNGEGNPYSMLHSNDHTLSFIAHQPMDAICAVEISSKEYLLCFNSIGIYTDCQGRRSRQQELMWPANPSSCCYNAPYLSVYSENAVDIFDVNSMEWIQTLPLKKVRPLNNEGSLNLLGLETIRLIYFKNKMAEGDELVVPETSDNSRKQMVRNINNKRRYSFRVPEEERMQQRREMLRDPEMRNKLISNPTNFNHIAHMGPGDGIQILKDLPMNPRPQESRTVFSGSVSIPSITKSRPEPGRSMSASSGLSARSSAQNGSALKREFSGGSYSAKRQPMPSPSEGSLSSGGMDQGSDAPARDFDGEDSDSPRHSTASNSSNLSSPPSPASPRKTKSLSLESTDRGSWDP

LIM domain kinase 1 = LIM domain kinase 1 (Homo sapiens, UniProt P53667)
[5] = target: T2, MAP kinase-activated protein kinase 5 (Homo sapiens, UniProt Q8IW41)
T2 sequence (Q8IW41 whole entry): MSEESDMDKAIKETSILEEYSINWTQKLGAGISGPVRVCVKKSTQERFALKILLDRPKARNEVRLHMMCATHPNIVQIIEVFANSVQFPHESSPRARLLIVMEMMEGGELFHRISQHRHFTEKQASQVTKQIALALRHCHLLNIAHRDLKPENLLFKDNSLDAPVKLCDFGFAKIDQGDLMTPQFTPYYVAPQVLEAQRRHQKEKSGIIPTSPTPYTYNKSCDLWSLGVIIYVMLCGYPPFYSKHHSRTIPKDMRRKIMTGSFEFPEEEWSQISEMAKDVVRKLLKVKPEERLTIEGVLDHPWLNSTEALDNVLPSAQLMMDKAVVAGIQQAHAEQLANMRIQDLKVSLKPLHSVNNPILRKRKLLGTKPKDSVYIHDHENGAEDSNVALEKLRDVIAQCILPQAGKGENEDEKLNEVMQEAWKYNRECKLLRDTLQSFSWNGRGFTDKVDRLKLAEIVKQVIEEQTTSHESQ

Activated CDC42 kinase 1 = Activated CDC42 kinase 1 (Homo sapiens, UniProt Q07912)
[6] = target: Serine/threonine-protein kinase SIK3 (Homo sapiens, UniProt Q9Y2K2)
Chain of Serine/threonine-protein kinase SIK3 (Q9Y2K2 whole entry): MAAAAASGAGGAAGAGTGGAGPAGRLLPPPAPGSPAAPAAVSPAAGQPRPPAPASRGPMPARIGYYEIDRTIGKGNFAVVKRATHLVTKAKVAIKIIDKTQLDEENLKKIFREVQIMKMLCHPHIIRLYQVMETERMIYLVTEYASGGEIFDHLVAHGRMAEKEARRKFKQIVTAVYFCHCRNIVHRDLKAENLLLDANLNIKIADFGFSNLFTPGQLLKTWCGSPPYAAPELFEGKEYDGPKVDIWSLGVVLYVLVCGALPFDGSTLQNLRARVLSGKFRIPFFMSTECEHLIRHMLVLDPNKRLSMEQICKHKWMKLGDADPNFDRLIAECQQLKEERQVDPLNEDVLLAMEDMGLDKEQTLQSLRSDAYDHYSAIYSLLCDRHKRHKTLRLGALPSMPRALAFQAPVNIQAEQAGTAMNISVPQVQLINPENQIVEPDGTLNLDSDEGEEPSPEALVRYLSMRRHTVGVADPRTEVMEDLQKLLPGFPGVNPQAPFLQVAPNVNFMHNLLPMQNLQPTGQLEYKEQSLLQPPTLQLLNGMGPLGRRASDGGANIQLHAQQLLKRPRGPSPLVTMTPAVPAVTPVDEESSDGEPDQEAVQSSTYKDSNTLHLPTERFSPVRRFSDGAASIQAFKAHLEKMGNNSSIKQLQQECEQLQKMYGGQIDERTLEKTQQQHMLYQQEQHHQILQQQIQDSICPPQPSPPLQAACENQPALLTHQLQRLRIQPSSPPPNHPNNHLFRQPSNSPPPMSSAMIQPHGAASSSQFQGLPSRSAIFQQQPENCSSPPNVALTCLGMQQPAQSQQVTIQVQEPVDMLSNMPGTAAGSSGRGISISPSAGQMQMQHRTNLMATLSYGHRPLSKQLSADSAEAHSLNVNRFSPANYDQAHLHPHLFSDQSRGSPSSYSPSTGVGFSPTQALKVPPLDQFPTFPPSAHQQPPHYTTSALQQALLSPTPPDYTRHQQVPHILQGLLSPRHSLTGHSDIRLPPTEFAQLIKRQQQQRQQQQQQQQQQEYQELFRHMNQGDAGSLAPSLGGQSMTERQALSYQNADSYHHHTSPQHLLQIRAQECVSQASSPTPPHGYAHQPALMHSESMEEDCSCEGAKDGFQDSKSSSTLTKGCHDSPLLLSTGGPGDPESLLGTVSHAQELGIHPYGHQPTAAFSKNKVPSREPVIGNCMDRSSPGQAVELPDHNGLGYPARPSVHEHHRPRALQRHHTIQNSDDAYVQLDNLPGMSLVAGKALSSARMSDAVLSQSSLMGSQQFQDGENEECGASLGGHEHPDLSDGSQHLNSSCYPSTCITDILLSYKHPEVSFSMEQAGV

[7] = target: BMP-2-inducible protein kinase (Homo sapiens, UniProt Q9NSY1)
Chain of BMP-2-inducible protein kinase (Q9NSY1 whole entry): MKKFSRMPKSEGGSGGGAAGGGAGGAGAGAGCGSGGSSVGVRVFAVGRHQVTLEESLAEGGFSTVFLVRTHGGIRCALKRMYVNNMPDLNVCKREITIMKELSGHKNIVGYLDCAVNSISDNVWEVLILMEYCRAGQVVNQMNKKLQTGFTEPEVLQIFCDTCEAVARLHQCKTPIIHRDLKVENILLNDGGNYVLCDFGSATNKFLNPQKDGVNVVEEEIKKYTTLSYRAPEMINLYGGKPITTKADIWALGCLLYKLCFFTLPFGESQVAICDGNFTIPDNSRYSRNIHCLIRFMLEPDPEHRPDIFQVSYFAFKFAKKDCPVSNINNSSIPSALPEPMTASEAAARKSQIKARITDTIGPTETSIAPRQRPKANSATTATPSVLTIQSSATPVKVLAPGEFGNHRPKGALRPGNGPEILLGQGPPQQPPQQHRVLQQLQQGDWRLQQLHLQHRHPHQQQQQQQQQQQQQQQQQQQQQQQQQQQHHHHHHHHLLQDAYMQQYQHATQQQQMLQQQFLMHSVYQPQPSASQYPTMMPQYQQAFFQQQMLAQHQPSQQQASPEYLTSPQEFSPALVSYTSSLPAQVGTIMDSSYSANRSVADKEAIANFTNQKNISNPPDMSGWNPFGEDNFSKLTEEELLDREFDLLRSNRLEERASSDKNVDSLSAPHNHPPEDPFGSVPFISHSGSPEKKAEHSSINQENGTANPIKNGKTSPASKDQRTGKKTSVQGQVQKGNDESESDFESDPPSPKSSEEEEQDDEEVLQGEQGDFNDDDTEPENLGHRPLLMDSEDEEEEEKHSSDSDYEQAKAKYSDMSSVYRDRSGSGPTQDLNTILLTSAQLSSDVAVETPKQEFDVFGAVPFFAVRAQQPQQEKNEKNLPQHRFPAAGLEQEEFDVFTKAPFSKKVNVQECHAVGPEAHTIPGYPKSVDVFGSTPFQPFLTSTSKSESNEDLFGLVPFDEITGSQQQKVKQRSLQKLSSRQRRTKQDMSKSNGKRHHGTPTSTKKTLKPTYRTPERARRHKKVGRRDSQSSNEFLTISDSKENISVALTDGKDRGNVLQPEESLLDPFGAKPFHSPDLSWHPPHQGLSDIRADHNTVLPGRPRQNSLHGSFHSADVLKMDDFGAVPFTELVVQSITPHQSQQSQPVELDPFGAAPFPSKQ

[8] = target: Calcium/calmodulin-dependent protein kinase type II subunit gamma (Homo sapiens, UniProt Q13555)
[9] = target: T3, Serine/threonine-protein kinase 4 (Homo sapiens, UniProt Q13043)
T3 sequence (Q13043 whole entry): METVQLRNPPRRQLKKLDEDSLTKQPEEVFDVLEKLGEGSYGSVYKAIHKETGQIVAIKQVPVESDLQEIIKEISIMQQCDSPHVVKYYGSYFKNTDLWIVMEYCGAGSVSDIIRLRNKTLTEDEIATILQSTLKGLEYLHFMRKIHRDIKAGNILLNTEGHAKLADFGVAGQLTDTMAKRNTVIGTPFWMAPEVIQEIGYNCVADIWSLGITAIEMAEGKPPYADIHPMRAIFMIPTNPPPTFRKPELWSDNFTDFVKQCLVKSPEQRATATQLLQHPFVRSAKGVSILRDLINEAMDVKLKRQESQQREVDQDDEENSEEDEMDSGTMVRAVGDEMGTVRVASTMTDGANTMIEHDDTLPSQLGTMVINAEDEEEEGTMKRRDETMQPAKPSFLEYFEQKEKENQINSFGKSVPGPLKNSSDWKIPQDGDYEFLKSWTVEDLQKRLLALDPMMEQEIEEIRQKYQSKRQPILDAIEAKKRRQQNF

[10] = target: Cyclin-dependent kinase 5 (Homo sapiens, UniProt Q00535)
Chain of Cyclin-dependent kinase 5 (Q00535 whole entry): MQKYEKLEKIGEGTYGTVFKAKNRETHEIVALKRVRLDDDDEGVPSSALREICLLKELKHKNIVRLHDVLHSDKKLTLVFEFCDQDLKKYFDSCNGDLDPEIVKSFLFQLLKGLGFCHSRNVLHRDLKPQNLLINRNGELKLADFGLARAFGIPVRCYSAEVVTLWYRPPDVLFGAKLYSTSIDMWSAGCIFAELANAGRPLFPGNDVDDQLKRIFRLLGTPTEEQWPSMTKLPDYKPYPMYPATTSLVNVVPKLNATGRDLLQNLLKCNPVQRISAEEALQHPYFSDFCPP

[11] = target: T4, Non-receptor tyrosine-protein kinase TNK1 (Homo sapiens, UniProt Q13470)
T4 sequence (Q13470 whole entry): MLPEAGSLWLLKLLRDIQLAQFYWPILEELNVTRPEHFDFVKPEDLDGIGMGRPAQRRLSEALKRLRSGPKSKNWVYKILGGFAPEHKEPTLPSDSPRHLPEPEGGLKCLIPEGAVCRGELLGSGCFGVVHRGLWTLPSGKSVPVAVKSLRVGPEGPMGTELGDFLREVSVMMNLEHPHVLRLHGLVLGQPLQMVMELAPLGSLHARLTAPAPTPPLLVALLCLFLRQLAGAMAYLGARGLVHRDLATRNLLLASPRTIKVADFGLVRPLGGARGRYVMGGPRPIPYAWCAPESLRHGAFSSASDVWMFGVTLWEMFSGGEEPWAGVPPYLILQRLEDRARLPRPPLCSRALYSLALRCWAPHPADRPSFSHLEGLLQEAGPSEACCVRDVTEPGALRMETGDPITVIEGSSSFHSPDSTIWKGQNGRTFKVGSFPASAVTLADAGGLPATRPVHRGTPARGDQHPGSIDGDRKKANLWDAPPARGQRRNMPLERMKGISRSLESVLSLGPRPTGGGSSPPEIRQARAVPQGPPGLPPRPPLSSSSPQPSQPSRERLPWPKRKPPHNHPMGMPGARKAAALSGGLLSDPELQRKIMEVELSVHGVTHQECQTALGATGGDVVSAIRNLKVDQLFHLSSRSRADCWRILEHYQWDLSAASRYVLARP
Also: in the data inactive means no Kd found up to 30 µM.

Chain of Dual specificity protein kinase CLK1 (P49759 whole entry): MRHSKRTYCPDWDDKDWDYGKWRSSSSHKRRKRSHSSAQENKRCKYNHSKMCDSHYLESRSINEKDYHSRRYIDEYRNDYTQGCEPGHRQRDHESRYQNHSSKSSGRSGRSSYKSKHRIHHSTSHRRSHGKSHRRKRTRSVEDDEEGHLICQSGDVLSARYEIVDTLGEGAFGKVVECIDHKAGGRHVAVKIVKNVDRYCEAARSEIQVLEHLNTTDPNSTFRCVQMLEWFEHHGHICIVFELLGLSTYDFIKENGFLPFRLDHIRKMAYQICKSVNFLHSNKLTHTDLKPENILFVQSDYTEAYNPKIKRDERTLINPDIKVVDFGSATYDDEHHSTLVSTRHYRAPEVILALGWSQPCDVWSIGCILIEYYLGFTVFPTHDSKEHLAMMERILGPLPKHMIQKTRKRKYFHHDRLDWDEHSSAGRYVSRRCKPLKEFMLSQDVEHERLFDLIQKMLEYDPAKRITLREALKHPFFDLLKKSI

| Structure (SMILES) | Kd [1] | Kd [2] | Kd [3] | Kd [4] | Kd (LIM domain kinase 1) | Kd [5] | Kd (Activated CDC42 kinase 1) | Kd [6] | Kd [7] | Kd [8] | Kd [9] | Kd [10] | Kd [11] | pKd [2] | pKd (Activated CDC42 kinase 1) |
| --- | --- | --- | --- | --- | --- | --- | --- | --- | --- | --- | --- | --- | --- | --- | --- |
| CC(=O)Nc1cccc(-n2c(=O)n(C3CC3)c(=O)c3c(Nc4ccc(I)cc4F)n(C)c(=O)c(C)c32)c1 [TRAMETINIB] | > 30 µM (inactive) | > 30 µM (inactive) | > 30 µM (inactive) | > 30 µM (inactive) | > 30 µM (inactive) | > 30 µM (inactive) | > 30 µM (inactive) | > 30 µM (inactive) | > 30 µM (inactive) | > 30 µM (inactive) | > 30 µM (inactive) | > 30 µM (inactive) | > 30 µM (inactive) | – | – |
| COC(=O)N[C@@H](C)CNc1nccc(-c2cn(C(C)C)nc2-c2cc(Cl)cc(NS(C)(=O)=O)c2F)n1 [ENCORAFENIB] | > 30 µM (inactive) | > 30 µM (inactive) | > 30 µM (inactive) | > 30 µM (inactive) | 0.026 µM (active) | > 30 µM (inactive) | > 30 µM (inactive) | > 30 µM (inactive) | > 30 µM (inactive) | > 30 µM (inactive) | > 30 µM (inactive) | > 30 µM (inactive) | > 30 µM (inactive) | – | – |
| CCn1c(=O)c(-c2cc[nH]n2)cc2c(C)nc(N)nc21 [VOXTALISIB] | > 30 µM (inactive) | > 30 µM (inactive) | > 30 µM (inactive) | > 30 µM (inactive) | > 30 µM (inactive) | > 30 µM (inactive) | > 30 µM (inactive) | > 30 µM (inactive) | > 30 µM (inactive) | > 30 µM (inactive) | > 30 µM (inactive) | > 30 µM (inactive) | > 30 µM (inactive) | – | – |
| Cc1ccc(NC(=O)c2ccc(CN3CC[C@H](N(C)C)C3)c(C(F)(F)F)c2)cc1Nc1nccc(-c2cncnc2)n1 [BAFETINIB] | > 30 µM (inactive) | – | > 30 µM (inactive) | > 30 µM (inactive) | > 30 µM (inactive) | > 30 µM (inactive) | > 30 µM (inactive) | > 30 µM (inactive) | > 30 µM (inactive) | > 30 µM (inactive) | > 30 µM (inactive) | > 30 µM (inactive) | > 30 µM (inactive) | 5.21 | – |
| COc1ccc(-c2ccc3c(N4CCOC[C@@H]4C)nc(N4CCOC[C@@H]4C)nc3n2)cc1CO [AZD-8055] | > 30 µM (inactive) | > 30 µM (inactive) | > 30 µM (inactive) | > 30 µM (inactive) | > 30 µM (inactive) | > 30 µM (inactive) | > 30 µM (inactive) | > 30 µM (inactive) | > 30 µM (inactive) | > 30 µM (inactive) | > 30 µM (inactive) | > 30 µM (inactive) | > 30 µM (inactive) | – | – |
| Cn1cc(-c2ccc(F)c(C(F)(F)F)c2)nc1C1CCN(c2ncnc3[nH]ncc23)CC1 [LY-2584702] | > 30 µM (inactive) | > 30 µM (inactive) | > 30 µM (inactive) | > 30 µM (inactive) | > 30 µM (inactive) | > 30 µM (inactive) | > 30 µM (inactive) | > 30 µM (inactive) | > 30 µM (inactive) | > 30 µM (inactive) | > 30 µM (inactive) | > 30 µM (inactive) | > 30 µM (inactive) | – | – |
| CNC(=O)CN1CCC(Oc2cc3c(Nc4cccc(Cl)c4F)ncnc3cc2OC)CC1 [SAPITINIB] | > 30 µM (inactive) | > 30 µM (inactive) | > 30 µM (inactive) | > 30 µM (inactive) | > 30 µM (inactive) | > 30 µM (inactive) | > 30 µM (inactive) | > 30 µM (inactive) | > 30 µM (inactive) | > 30 µM (inactive) | > 30 µM (inactive) | > 30 µM (inactive) | > 30 µM (inactive) | – | – |
| COc1cc(CCc2cc(NC(=O)c3ccc(N4C[C@@H](C)N[C@@H](C)C4)cc3)n[nH]2)cc(OC)c1 [AZD-4547] | > 30 µM (inactive) | > 30 µM (inactive) | > 30 µM (inactive) | > 30 µM (inactive) | > 30 µM (inactive) | > 30 µM (inactive) | – | > 30 µM (inactive) | > 30 µM (inactive) | > 30 µM (inactive) | > 30 µM (inactive) | > 30 µM (inactive) | > 30 µM (inactive) | – | 6.83 |
| CNC(=O)c1ccc(C)c(-n2c(C)cc(OCc3ccc(F)cc3F)c(Br)c2=O)c1 [PH-797804] | > 30 µM (inactive) | > 30 µM (inactive) | > 30 µM (inactive) | > 30 µM (inactive) | > 30 µM (inactive) | > 30 µM (inactive) | > 30 µM (inactive) | > 30 µM (inactive) | > 30 µM (inactive) | > 30 µM (inactive) | > 30 µM (inactive) | > 30 µM (inactive) | > 30 µM (inactive) | – | – |
| CNC(=O)c1cc(Oc2ccc(NC(=O)Nc3ccc(Cl)c(C(F)(F)F)c3)c(F)c2)ccn1 [REGORAFENIB] | 2.11 µM (active) | > 30 µM (inactive) | > 30 µM (inactive) | > 30 µM (inactive) | 0.616 µM (active) | > 30 µM (inactive) | > 30 µM (inactive) | > 30 µM (inactive) | > 30 µM (inactive) | > 30 µM (inactive) | > 30 µM (inactive) | > 30 µM (inactive) | > 30 µM (inactive) | – | – |
| CCN1CCN(Cc2ccc(-c3cc4c(N[C@H](C)c5ccccc5)ncnc4[nH]3)cc2)CC1 [AEE-788] | > 30 µM (inactive) | > 30 µM (inactive) | > 30 µM (inactive) | > 30 µM (inactive) | 0.632 µM (active) | > 30 µM (inactive) | 1.01 µM (active) | > 30 µM (inactive) | > 30 µM (inactive) | > 30 µM (inactive) | > 30 µM (inactive) | > 30 µM (inactive) | > 30 µM (inactive) | – | – |
| CN1CC[C@@H](c2c(O)cc(O)c3c(=O)cc(-c4ccccc4Cl)oc23)[C@@H]1CO | > 30 µM (inactive) | > 30 µM (inactive) | > 30 µM (inactive) | > 30 µM (inactive) | > 30 µM (inactive) | > 30 µM (inactive) | > 30 µM (inactive) | > 30 µM (inactive) | > 30 µM (inactive) | 1.34 µM (active) | > 30 µM (inactive) | > 30 µM (inactive) | > 30 µM (inactive) | – | – |
